Test system: C57BL/6 mice
Assay: animal or person
Assay type: in vivo
Conditions: Mus musculus, sc, 0.5 h, s.c. administration, 30 min, 55° C. water, read-out: ED50 (mg/kg) at 30 min on C57BL/6 mice in Warm-water Tail-flick Test

| Structure (SMILES) | ED50 |
| --- | --- |
| CC(=O)Nc1ccc(CN2CC[C@@](CCc3ccccc3)([C@@H]3C=CCO3)C2)cc1 (single isomer, unassigned) [Compound 258] | < 10 mg/kg |
| CC(=O)Nc1ccc(CN2CC[C@@](CCc3ccccc3)([C@H]3C=CCO3)C2)cc1 (single isomer, unassigned) [Compound 259] | < 10 mg/kg |
| CC(=O)Nc1ccc(CN2CC[C@](CCc3ccccc3)([C@@H]3C=CCO3)C2)cc1 (single isomer, unassigned) [Compound 260] | > 10 mg/kg |
| CC(=O)Nc1ccc(CN2CC[C@](CCc3ccccc3)([C@H]3C=CCO3)C2)cc1 (single isomer, unassigned) [Compound 261] | > 10 mg/kg |
| C[C@H](O)[C@]1(CCc2cccs2)CCN(Cc2cccnc2)C1 (single isomer, unassigned) [Compound 422] | < 10 mg/kg |
| C[C@H](O)[C@@]1(CCc2cccs2)CCN(Cc2cccnc2)C1 (single isomer, unassigned) [Compound 423] | < 10 mg/kg |
| C[C@@H](O)[C@]1(CCc2cccs2)CCN(Cc2cccnc2)C1 (single isomer, unassigned) [Compound 424] | < 10 mg/kg |
| CCOC(C)[C@@]1(CCc2cccs2)CCN(C(C)(C)c2ccc(C)nc2)C1 (single isomer, unassigned) [Compound 425, 5-(2-((S)-3-((S or R)-1-ethoxyethyl)-3-(2-(thiophen-2-yl)ethyl)pyrrolidin-1-yl)propan-2-yl)-2-methylpyridine] | < 10 mg/kg |
| CCOCC1(CCc2cccs2)CCN(Cc2ccc(NC(C)=O)cc2)C1 (stereo in doubt) [Compound 325, (R)-N-(4-((3-(ethoxymethyl)-3-(2-(thiophen-2-yl)ethyl)pyrrolidin-1-yl)methyl)phenyl)acetamide] | < 10 mg/kg |
| CC(=O)Nc1ccc(CN2CCC(CCc3ccccc3)(c3ncc[nH]3)CC2)cc1 [Compound 1] | > 10 mg/kg |
| CC(=O)Nc1ccc(CN2CCC(CCc3ccccc3)(c3cccs3)CC2)cc1 [Compound 2] | > 10 mg/kg |
| CC(=O)Nc1ccc(CN2CCC(CCc3ccccc3)(c3ccsc3)CC2)cc1 [Compound 3] | > 10 mg/kg |
| CC(=O)Nc1ccc(CN2CCC(CCc3ccccc3)(c3ccccc3)CC2)cc1 [Compound 4] | > 10 mg/kg |
| CC(=O)Nc1ccc(CN2CCC(CCc3ccccc3)(c3ccccn3)CC2)cc1 [Compound 5] | < 10 mg/kg |
| CC(=O)Nc1ccc(CN2CCC(CCc3ccccc3)(c3cccnc3)CC2)cc1 [Compound 6] | > 10 mg/kg |
| CC(=O)Nc1ccc(CN2CCC(CCc3ccccc3)(c3ccncc3)CC2)cc1 [Compound 7] | > 10 mg/kg |
| CC(=O)Nc1ccc(CN2CCC(CCc3ccccc3)(c3nncs3)CC2)cc1 [Compound 8] | > 10 mg/kg |
| CC(=O)Nc1ccc(CN2CCC(CCc3ccccc3)(c3nnco3)CC2)cc1 [Compound 9] | > 10 mg/kg |
| CC(=O)Nc1ccc(CN2CCC(CCc3ccccc3)(c3ncon3)CC2)cc1 [Compound 10] | > 10 mg/kg |
| CC(=O)Nc1ccc(CN2CCC(CCc3ccccc3)(c3noc(C)n3)CC2)cc1 [Compound 11] | > 10 mg/kg |
| CC(=O)Nc1ccc(CN2CCC(CCc3ccccc3)(c3nnc(C)o3)CC2)cc1 [Compound 12, N-(4-((4-(5-methyl-1,3,4-oxadiazol-2-yl)-4-phenethylpiperidin-1-yl)methyl)phenyl)acetamide] | > 10 mg/kg |
| CC(=O)Nc1ccc(CN2CCC(CCc3ccccc3)(c3nnc(C)s3)CC2)cc1 [Compound 13, N-(4-((4-(5-methyl-1,3,4-thiadiazol-2-yl)-4-phenethylpiperidin-1-yl)methyl)phenyl)acetamide] | > 10 mg/kg |
| CC(=O)Nc1ccc(CN2CCC(Cc3ccccc3)(c3ccccn3)CC2)cc1 [Compound 14, N-(4-((4-benzyl-4-(pyridin-2-yl)piperidin-1-yl)methyl)phenyl)acetamide] | > 10 mg/kg |
| CC(=O)Nc1ccc(CN2CCC(CCCc3ccccc3)(c3ccccn3)CC2)cc1 [Compound 15, N-(4-((4-(3-phenylpropyl)-4-(pyridin-2-yl)piperidin-1-yl)methyl)phenyl)acetamide] | > 10 mg/kg |
| CC(=O)Nc1ccc(CN2CCC(CCc3ccccn3)(c3ccccn3)CC2)cc1 [Compound 16, N-(4-((4-(pyridin-2-yl)-4-(2-(pyridin-2-yl)ethyl)piperidin-1-yl)methyl)phenyl)acetamide] | > 10 mg/kg |

| Structure (SMILES) | ED50 |
| --- | --- |
| CC(=O)N(C)c1ccc(CN2CCC(CCc3ccccc3)(c3ccccn3)CC2)cc1 [Compound 17, N-methyl-N-(4-((4-phenethyl-4-(pyridin-2-yl)piperidin-1-yl)methyl)phenyl)acetamide] | > 10 mg/kg |
| CC(C)C(=O)Nc1ccc(CN2CCC(CCc3ccccc3)(c3ccccn3)CC2)cc1 [Compound 18, N-(4-((4-phenethyl-4-(pyridin-2-yl)piperidin-1-yl)methyl)phenyl)iso-butyramide] | > 10 mg/kg |
| CCC(=O)Nc1ccc(CN2CCC(CCc3ccccc3)(c3ccccn3)CC2)cc1 [Compound 19, N-(4-((4-phenethyl-4-(pyridin-2-yl)piperidin-1-yl)methyl)phenyl)pro-pionamide] | > 10 mg/kg |
| CCCCC(=O)Nc1ccc(CN2CCC(CCc3ccccc3)(c3ccccn3)CC2)cc1 [Compound 20, N-(4-((4-phenethyl-4-(pyridin-2-yl)piperidin-1-yl)methyl)phenyl)pen-tanamide] | > 10 mg/kg |
| CC(C)CCC(=O)Nc1ccc(CN2CCC(CCc3ccccc3)(c3ccccn3)CC2)cc1 [Compound 21, 4-methyl-N-(4-((4-phenethyl-4-(pyridin-2-yl)piperidin-1-yl)methyl)phenyl)pen-tanamide] | > 10 mg/kg |
| CCOC(=O)Nc1ccc(CN2CCC(CCc3ccccc3)(c3ccccn3)CC2)cc1 [Compound 22, ethyl 4-((4-phenethyl-4-(pyridin-2-yl)piperidin-1-yl)methyl)phenylcarbamate] | > 10 mg/kg |
| NC(=O)Nc1ccc(CN2CCC(CCc3ccccc3)(c3ccccn3)CC2)cc1 [Compound 23, 1-(4-((4-phenethyl-4-(pyridin-2-yl)piperidin-1-yl)methyl)phenyl)urea] | > 10 mg/kg |
| O=C(Nc1ccc(CN2CCC(CCc3ccccc3)(c3ccccn3)CC2)cc1)c1ccccc1 [Compound 24, N-(4-((4-phenethyl-4-(pyridin-2-yl)piperidin-1-yl)methyl)phenyl)benz-amide] | > 10 mg/kg |
| CNc1ccc(CN2CCC(CCc3ccccc3)(c3ccccn3)CC2)cc1 [Compound 25, N-methyl-4-((4-phenethyl-4-(pyridin-2-yl)piperidin-1-yl)methyl)aniline] | > 10 mg/kg |
| c1ccc(CCC2(c3ccccn3)CCN(Cc3ccccc3)CC2)cc1 [Compound 26, 2-(1-benzyl-4-phenethylpiperidin-4-yl)pyridine] | > 10 mg/kg |
| COC(=O)C1(CCc2ccccc2)CN(Cc2ccc(NC(C)=O)cc2)C1.Cl [Compound 27, methyl 1-(4-acetamidobenzyl)-3-phenethylazetidine-3-carboxylate HCl] | > 10 mg/kg |
| COC(=O)C1(CCc2ccccc2)CCN(Cc2ccc(NC(C)=O)cc2)C1 (centres unmarked) [Compound 28, methyl 1-(4-acetamidobenzyl)-3-phenethylpyrrolidine-3-carboxylate] | < 10 mg/kg |
| COC(=O)C1(CCc2ccccc2)CCCN(Cc2ccc(NC(C)=O)cc2)C1 (centres unmarked) [Compound 29, methyl 1-(4-acetamidobenzyl)-3-phenethylpiperidine-3-carboxylate] | > 10 mg/kg |
| CC(=O)Nc1ccc(CN2CCC(CCc3ccccc3)(c3ccccn3)C2)cc1 (centres unmarked) [Compound 30, N-(4-((3-phenethyl-3-(pyridin-2-yl)pyrrolidin-1-yl)methyl)phenyl)acetamide] | > 10 mg/kg |
| CC(=O)Nc1ccc(NN2CCC(CCc3ccccc3)(c3ccccn3)CC2)cc1 [Compound 31, N-(4-(4-phenethyl-4-(pyridin-2-yl)piperidin-1-ylamino)phenyl)acetamide] | > 10 mg/kg |
| CC(=O)Nc1ccc(CN2CCCC(CCc3ccccc3)(c3ccccn3)C2)cc1 (centres unmarked) [Compound 32, N-(4-((3-phenethyl-3-(pyridin-2-yl)piperidin-1-yl)methyl)phenyl)acetamide] | > 10 mg/kg |
| CC(=O)Nc1ccc(CN2CCC(/C=C/c3ccccc3)(c3ccccn3)CC2)cc1 [Compound 33, (E)-N-(4-((4-(pyridin-2-yl)-4-styrylpiperidin-1-yl)methyl)phenyl)acetamide] | > 10 mg/kg |
| CC(=O)Nc1ccc(CN2CCC(CCc3ccccc3)(c3nccn3C)CC2)cc1 [Compound 34, N-(4-((4-(1-methyl-1H-imidazol-2-yl)-4-phenethylpiperidin-1-yl)methyl)phenyl)acetamide] | > 10 mg/kg |
| CC(=O)NCCCCN1CCC(CCc2ccccc2)(c2ccccn2)CC1 [Compound 35, N-(4-(4-phenethyl-4-(pyridin-2-yl)piperidin-1-yl)butyl)acetamide] | > 10 mg/kg |
| CC(=O)NCCN1CCC(CCc2ccccc2)(c2ccccn2)CC1 [Compound 36, N-(2-(4-phenethyl-4-(pyridin-2-yl)piperidin-1-yl)ethyl)acetamide] | > 10 mg/kg |
| CC(=O)Nc1ccc(CN2CCC(CCc3ccccc3)(c3cccc(F)n3)CC2)cc1 [Compound 37, N-(4-((4-(6-fluoropyridin-2-yl)-4-phenethylpiperidin-1-yl)methyl)phenyl)acetamide] | > 10 mg/kg |
| COc1ccc(C2(CCc3ccccc3)CCN(Cc3ccc(NC(C)=O)cc3)CC2)nc1 [Compound 38, N-(4-((4-(5-methoxypyridin-2-yl)-4-phenethylpiperidin-1-yl)methyl)phenyl)acetamide] | > 10 mg/kg |
| CC(=O)Nc1ccc(CN2CCC(CCc3ccccc3)(Cc3ccccn3)CC2)cc1 [Compound 39, N-(4-((4-phenethyl-4-(pyridin-2-ylmethyl)piperidin-1-yl)methyl)phenyl)acetamide] | > 10 mg/kg |
| CC(=O)Nc1ccc(CN2CCC(/C=C/c3ccccc3)(c3ccncc3)CC2)cc1 [Compound 40, (E)-N-(4-((4-(pyridin-4-yl)-4-styrylpiperidin-1-yl)methyl)phenyl)acetamide] | > 10 mg/kg |
| Nc1ccc(CN2CCC(CCc3ccccc3)(c3ccccn3)CC2)cc1 [Compound 41, 4-((4-phenethyl-4-(pyridin-2-yl)piperidin-1-yl)methyl)aniline] | > 10 mg/kg |
